Patent US20230365589A1, “NOVEL AMINE DERIVATIVES” (Sumitomo Pharma Co., Ltd., priority 2020, published 2023)

What was measured:
Format in all cases: biochemical
[1] = target: T1, DYRK1B (Homo sapiens, UniProt Q9Y463); experiment: Inhibition test on activity of DYRK family, mobility shift assay (MSA): DYRK1B; conditions: MSA, FITC-labeled DYRKtide peptide, ATP 200 μM; read-out: Inhibitory activity DYRK 1B (IC50 class)
T1 construct: purchased Carna Biosciences, Inc. 04-131
Outline: (§1)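 Mobility-shift readout of FITC-DYRKtide phosphorylation in 20 mM HEPES pH 7.5. The substrate mix held 4 µM peptide, 20 mM MgCl2 and ATP at 100 (1A), 200 (1B), 40 (2) or 20 µM (3). Reaction 1 h at room temperature; IC50 from regression of P/(P+S)-based inhibition vs log concentration.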

[2] = target: T2, DYRK3 (Homo sapiens, UniProt O43781); experiment: Inhibition test on activity of DYRK family, mobility shift assay (MSA): DYRK3; conditions: MSA, FITC-labeled DYRKtide peptide, ATP 20 μM; read-out: Inhibitory activity DYRK 3 (IC50 class)
T2 construct: purchased Carna Biosciences, Inc. 04-133
T2 sequence (O43781 1-568 isoform O43781-2): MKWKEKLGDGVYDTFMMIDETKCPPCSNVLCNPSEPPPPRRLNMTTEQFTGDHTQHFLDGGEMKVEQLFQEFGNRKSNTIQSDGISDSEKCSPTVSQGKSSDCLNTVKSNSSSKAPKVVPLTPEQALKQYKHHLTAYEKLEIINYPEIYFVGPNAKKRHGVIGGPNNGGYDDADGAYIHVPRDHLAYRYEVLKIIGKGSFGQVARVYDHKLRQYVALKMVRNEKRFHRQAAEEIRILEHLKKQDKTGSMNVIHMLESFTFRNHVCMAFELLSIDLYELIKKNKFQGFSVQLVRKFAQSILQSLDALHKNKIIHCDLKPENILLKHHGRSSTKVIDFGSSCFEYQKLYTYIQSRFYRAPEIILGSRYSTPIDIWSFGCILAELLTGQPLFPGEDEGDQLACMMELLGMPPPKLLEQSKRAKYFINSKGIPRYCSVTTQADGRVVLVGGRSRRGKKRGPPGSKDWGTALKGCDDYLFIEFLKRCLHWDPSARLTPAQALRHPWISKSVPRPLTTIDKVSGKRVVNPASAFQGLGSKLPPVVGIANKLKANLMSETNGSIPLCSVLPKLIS
Outline: as §1

[3] = target: T3, DYRK2 (Homo sapiens, UniProt Q92630); experiment: Inhibition test on activity of DYRK family, mobility shift assay (MSA): DYRK2; conditions: MSA, FITC-labeled DYRKtide peptide, ATP 40 μM; read-out: Inhibitory activity DYRK 2 (IC50 class)
T3 construct: purchased Carna Biosciences, Inc. 04-132
T3 sequence (Q92630 74-601 limits assumed): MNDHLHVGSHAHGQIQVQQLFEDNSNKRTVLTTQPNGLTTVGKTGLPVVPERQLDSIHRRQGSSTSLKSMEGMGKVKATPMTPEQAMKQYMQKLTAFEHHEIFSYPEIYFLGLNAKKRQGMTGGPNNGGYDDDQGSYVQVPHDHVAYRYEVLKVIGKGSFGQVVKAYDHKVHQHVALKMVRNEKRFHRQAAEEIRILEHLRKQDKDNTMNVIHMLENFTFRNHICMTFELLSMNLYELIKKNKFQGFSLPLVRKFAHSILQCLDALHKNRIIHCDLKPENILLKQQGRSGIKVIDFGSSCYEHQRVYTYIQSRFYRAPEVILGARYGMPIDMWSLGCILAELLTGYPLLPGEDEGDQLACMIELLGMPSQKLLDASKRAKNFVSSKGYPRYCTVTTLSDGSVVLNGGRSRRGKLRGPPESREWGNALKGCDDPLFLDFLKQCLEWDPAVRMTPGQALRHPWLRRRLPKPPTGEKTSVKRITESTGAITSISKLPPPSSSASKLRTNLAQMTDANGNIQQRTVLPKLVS
Outline: as §1

[4] = target: T4, DYRK1A (Homo sapiens, UniProt Q13627); experiment: Inhibition test on activity of DYRK family, mobility shift assay (MSA): DYRK1A; conditions: MSA, FITC-labeled DYRKtide peptide, ATP 100 μM; read-out: Inhibitory activity DYRK 1A (IC50 class)
T4 construct: purchased Carna Biosciences, Inc. 04-130
Outline: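 Mobility shift assay with recombinant DYRK1A (0.2 ng/μL enzyme solution), FITC-DYRKtide substrate (4 μM in substrate mix), 100 μM ATP in substrate mix, HEPES pH 7.5 buffer with MgCl2; 1 h at room temperature. Phosphorylated vs unphosphorylated peptide peaks quantified; IC50 from regression of inhibition rate against log concentration.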

Measured: IC50

T1 sequence (Q9Y463 whole entry): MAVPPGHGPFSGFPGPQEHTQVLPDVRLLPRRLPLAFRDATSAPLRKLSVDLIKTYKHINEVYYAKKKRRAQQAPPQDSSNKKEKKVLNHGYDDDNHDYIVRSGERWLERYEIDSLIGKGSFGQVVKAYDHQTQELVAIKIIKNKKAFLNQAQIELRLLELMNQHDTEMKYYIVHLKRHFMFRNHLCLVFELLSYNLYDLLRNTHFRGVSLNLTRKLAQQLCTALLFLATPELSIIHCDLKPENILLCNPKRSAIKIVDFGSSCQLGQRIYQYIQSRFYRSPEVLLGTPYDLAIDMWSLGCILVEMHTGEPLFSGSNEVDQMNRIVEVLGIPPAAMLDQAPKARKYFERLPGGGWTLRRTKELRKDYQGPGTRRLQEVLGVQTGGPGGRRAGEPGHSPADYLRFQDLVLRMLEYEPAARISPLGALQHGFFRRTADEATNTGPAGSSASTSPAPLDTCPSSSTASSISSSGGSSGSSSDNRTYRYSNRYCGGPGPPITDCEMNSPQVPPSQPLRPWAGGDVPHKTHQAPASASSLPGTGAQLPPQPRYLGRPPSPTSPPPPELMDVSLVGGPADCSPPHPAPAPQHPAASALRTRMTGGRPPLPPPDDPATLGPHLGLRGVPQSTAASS

CN1CC[C@H]2NC(=O)N(c3nc4c5c(ccc4s3)OCC5)[C@H]2C1 (single isomer, unassigned) [Example 27]
≥ 1 µM: all assays above
